Results published in patent publication US5440016A, “Peptides of the formula (KFmoc) ZZZ and their uses” (priority 1993, dated 1995).
Square brackets hold non-standard residues; d marks the D form. Peptide text beside a SMILES is read from it. * marks the point of attachment. Phe(4-NO2) = N[C@@H](Cc1ccc([N+](=O)[O-])cc1)C(=O)O; Met(O2) = CS(=O)(=O)CC[C@H](N)C(=O)O; Fmoc = O=C(OCC1c2ccccc2-c2ccccc21)*; Nle = CCCC[C@H](N)C(=O)O; Orn = NCCC[C@H](N)C(=O)O; Thz = O=C(O)[C@@H]1CSCN1; Nva = CCC[C@H](N)C(=O)O; Abu = CC[C@H](N)C(=O)O; Aib = CC(C)(N)C(=O)O

Test system: Human red blood cells (RBCs)
Experiment: Hemolytic activity
Assay type: cell-based
Description: Each assay was carried out in 96-well culture tissue plates. Four wells per plate contain 125 μl of a non-peptide positive control (1% Triton in de-ionized water), and four wells per plate contain 125 μl of a control blank, phosphate buffered saline (PBS). The hemolytic peptide melittin was used as comparative control. The controls served to detect possible contamination and to calculate the percent hemolysis of each peptide. Human red blood cells (RBCs) were washed with PBS and centrifuged to separate them from the serum. The cells were then resuspended in PBS to a final suspension of 0.5% RBC. 125 μl of this suspension was added to the peptides and controls solution. The release of hemoglobin resulting from the cell lysis was determined by measuring the OD at 414 nm of 100 μl of the supernatant.

SMILES | HD50 (concentration necessary to lyse 50% of the cells) (Tables 18-21) [µg/mL] | HD50 (concentration necessary to lyse 50% of the cells) (Table 20, lower part) [μg/m]
CS(=O)(=O)CC[C@H](NC(=O)[C@H](CCCCN)NC(=O)[C@H](Cc1c[nH]c2ccccc12)NC(=O)[C@H](CCCCN)NC(=O)OCC1c2ccccc2-c2ccccc21)C(N)=O [(KFmoc)WK(MetO2)-NH2] (Fmoc-KWK[Met(O2)]-NH2) | 437 | 
NCCCC[C@H](NC(=O)OCC1c2ccccc2-c2ccccc21)C(=O)N[C@@H](Cc1c[nH]c2ccccc12)C(=O)N[C@@H](CCCCN)C(=O)N[C@@H](Cc1ccc([N+](=O)[O-])cc1)C(N)=O [(KFmoc)WK(NO2 F)-NH2] (Fmoc-KWK[Phe(4-NO2)]-NH2) | 67 | 
CCCC[C@H](NC(=O)[C@H](CCCCN)NC(=O)[C@H](Cc1c[nH]c2ccccc12)NC(=O)[C@H](CCCCN)NC(=O)OCC1c2ccccc2-c2ccccc21)C(N)=O [(KFmoc)WK(Nle)-NH2] (Fmoc-KWK[Nle]-NH2) | 91 | 
CCC[C@H](NC(=O)[C@H](CCCCN)NC(=O)[C@H](Cc1c[nH]c2ccccc12)NC(=O)[C@H](CCCCN)NC(=O)OCC1c2ccccc2-c2ccccc21)C(N)=O [(KFmoc)WK(Nve)-NH2] (Fmoc-KWK[Nva]-NH2) | 98 | 
NCCCC[C@H](NC(=O)OCC1c2ccccc2-c2ccccc21)C(=O)N[C@@H](Cc1c[nH]c2ccccc12)C(=O)N[C@@H](CCCCN)C(=O)N1CSC[C@H]1C(N)=O [(KFmoc)WK(Thiopro)-NH2] (Fmoc-KWK[Thz]-NH2) | 108 | 
CC[C@H](NC(=O)[C@H](CCCCN)NC(=O)[C@H](Cc1c[nH]c2ccccc12)NC(=O)[C@H](CCCCN)NC(=O)OCC1c2ccccc2-c2ccccc21)C(N)=O [(KFmoc)WK(aABA)-NH2] (Fmoc-KWK[Abu]-NH2) | 449 | 
CC(C)(NC(=O)[C@H](CCCCN)NC(=O)[C@H](Cc1c[nH]c2ccccc12)NC(=O)[C@H](CCCCN)NC(=O)OCC1c2ccccc2-c2ccccc21)C(N)=O [(KFmoc)WK(aAIB)-NH2] (Fmoc-KWK[Aib]-NH2) | 447 | 
C[C@H](NC(=O)[C@H](CCCCN)NC(=O)[C@H](Cc1c[nH]c2ccccc12)NC(=O)[C@H](CCCCN)NC(=O)OCC1c2ccccc2-c2ccccc21)C(N)=O [(KFmoc)WKA-NH2] (Fmoc-KWKA-NH2) | 378 | 
NCCCC[C@H](NC(=O)OCC1c2ccccc2-c2ccccc21)C(=O)N[C@@H](Cc1c[nH]c2ccccc12)C(=O)N[C@@H](CCCCN)C(=O)N[C@@H](CS)C(N)=O [(KFmoc)WKC-NH2] (Fmoc-KWKC-NH2) | 43 | 
NCCCC[C@H](NC(=O)OCC1c2ccccc2-c2ccccc21)C(=O)N[C@@H](Cc1c[nH]c2ccccc12)C(=O)N[C@@H](CCCCN)C(=O)N[C@@H](Cc1ccccc1)C(N)=O [(KFmoc)WKF-NH2] (Fmoc-KWKF-NH2) | 105 | 
NCCCC[C@H](NC(=O)OCC1c2ccccc2-c2ccccc21)C(=O)N[C@@H](Cc1c[nH]c2ccccc12)C(=O)N[C@@H](CCCCN)C(=O)NCC(N)=O [(KFmoc)WKG-NH2] (Fmoc-KWKG-NH2) | 449 | 
NCCCC[C@H](NC(=O)OCC1c2ccccc2-c2ccccc21)C(=O)N[C@@H](Cc1c[nH]c2ccccc12)C(=O)N[C@@H](CCCCN)C(=O)N[C@@H](Cc1c[nH]cn1)C(N)=O [(KFmoc)WKH-NH2] (Fmoc-KWKH-NH2) | 312 | 
CC[C@H](C)[C@H](NC(=O)[C@H](CCCCN)NC(=O)[C@H](Cc1c[nH]c2ccccc12)NC(=O)[C@H](CCCCN)NC(=O)OCC1c2ccccc2-c2ccccc21)C(N)=O [(KFmoc)WKI-NH2] (Fmoc-KWKI-NH2) | 141 | 
NCCCC[C@H](NC(=O)[C@H](CCCCN)NC(=O)[C@H](Cc1c[nH]c2ccccc12)NC(=O)[C@H](CCCCN)NC(=O)OCC1c2ccccc2-c2ccccc21)C(N)=O [(KFmoc)WKK-NH2] (Fmoc-KWKK-NH2) | 469 | 
CC(C)C[C@H](NC(=O)[C@H](CCCCN)NC(=O)[C@H](Cc1c[nH]c2ccccc12)NC(=O)[C@H](CCCCN)NC(=O)OCC1c2ccccc2-c2ccccc21)C(N)=O [(KFmoc)WKL-NH2] (Fmoc-KWKL-NH2) | 73 | 
CSCC[C@H](NC(=O)[C@H](CCCCN)NC(=O)[C@H](Cc1c[nH]c2ccccc12)NC(=O)[C@H](CCCCN)NC(=O)OCC1c2ccccc2-c2ccccc21)C(N)=O [(KFmoc)WKM-NH2] (Fmoc-KWKM-NH2) | 102 | 
NCCCC[C@H](NC(=O)OCC1c2ccccc2-c2ccccc21)C(=O)N[C@@H](Cc1c[nH]c2ccccc12)C(=O)N[C@@H](CCCCN)C(=O)N[C@@H](CC(N)=O)C(N)=O [(KFmoc)WKN-NH2] (Fmoc-KWKN-NH2) | 204 | 

SMILES | HD50 (concentration necessary to lyse 50% of the cells) (Tables 18-21) [µg/mL] | HD50 (concentration necessary to lyse 50% of the cells) (Table 20, lower part) [μg/m]
N=C(N)NCCC[C@H](NC(=O)[C@H](CCCCN)NC(=O)[C@H](Cc1c[nH]c2ccccc12)NC(=O)[C@H](CCCCN)NC(=O)OCC1c2ccccc2-c2ccccc21)C(N)=O [(KFmoc)WKR-NH2] (Fmoc-KWKR-NH2) | 387 | 
NCCCC[C@H](NC(=O)OCC1c2ccccc2-c2ccccc21)C(=O)N[C@@H](Cc1c[nH]c2ccccc12)C(=O)N[C@@H](CCCCN)C(=O)N[C@@H](CO)C(N)=O [(KFmoc)WKS-NH2] (Fmoc-KWKS-NH2) | 206 | 
C[C@@H](O)[C@H](NC(=O)[C@H](CCCCN)NC(=O)[C@H](Cc1c[nH]c2ccccc12)NC(=O)[C@H](CCCCN)NC(=O)OCC1c2ccccc2-c2ccccc21)C(N)=O [(KFmoc)WKT-NH2] (Fmoc-KWKT-NH2) | 367 | 
CC(C)[C@H](NC(=O)[C@H](CCCCN)NC(=O)[C@H](Cc1c[nH]c2ccccc12)NC(=O)[C@H](CCCCN)NC(=O)OCC1c2ccccc2-c2ccccc21)C(N)=O [(KFmoc)WKV-NH2] (Fmoc-KWKV-NH2) | 137 | 
NCCCC[C@H](NC(=O)OCC1c2ccccc2-c2ccccc21)C(=O)N[C@@H](Cc1c[nH]c2ccccc12)C(=O)N[C@@H](CCCCN)C(=O)N[C@@H](Cc1c[nH]c2ccccc12)C(N)=O [(KFmoc)WKW-NH2] (Fmoc-KWKW-NH2) | 37 | 
NCCCC[C@H](NC(=O)OCC1c2ccccc2-c2ccccc21)C(=O)N[C@@H](Cc1c[nH]c2ccccc12)C(=O)N[C@@H](CCCCN)C(=O)N[C@@H](Cc1ccc(O)cc1)C(N)=O [(KFmoc)WKY-NH2] (Fmoc-KWKY-NH2) | 156 | 
NCCCC[C@H](NC(=O)OCC1c2ccccc2-c2ccccc21)C(=O)N[C@@H](Cc1c[nH]c2ccccc12)C(=O)N[C@@H](Cc1ccc(O)cc1)C(=O)N[C@@H](CCCN)C(N)=O [(KFmoc)WY(Orn)-NH2] (Fmoc-KWY[Orn]-NH2) | 62 | 
NCCCC[C@H](NC(=O)OCC1c2ccccc2-c2ccccc21)C(=O)N[C@@H](Cc1c[nH]c2ccccc12)C(=O)N[C@@H](Cc1ccc(O)cc1)C(=O)N1CSC[C@H]1C(N)=O [(KFmoc)WY(Thiopro)-NH2] (Fmoc-KWY[Thz]-NH2) | 488 | 
CC[C@H](NC(=O)[C@H](Cc1ccc(O)cc1)NC(=O)[C@H](Cc1c[nH]c2ccccc12)NC(=O)[C@H](CCCCN)NC(=O)OCC1c2ccccc2-c2ccccc21)C(N)=O [(KFmoc)WY(aABA)-NH2] (Fmoc-KWY[Abu]-NH2) | 114 | 
NCCCC[C@H](NC(=O)OCC1c2ccccc2-c2ccccc21)C(=O)N[C@@H](Cc1c[nH]c2ccccc12)C(=O)N[C@@H](Cc1ccc(O)cc1)C(=O)N[C@@H](CS)C(N)=O [(KFmoc)WYC-NH2] (Fmoc-KWYC-NH2) | 267 | 
NCCCC[C@H](NC(=O)OCC1c2ccccc2-c2ccccc21)C(=O)N[C@@H](Cc1c[nH]c2ccccc12)C(=O)N[C@@H](Cc1ccc(O)cc1)C(=O)NCC(N)=O [(KFmoc)WYG-NH2] (Fmoc-KWYG-NH2) | 376 | 
NCCCC[C@H](NC(=O)OCC1c2ccccc2-c2ccccc21)C(=O)N[C@@H](Cc1c[nH]c2ccccc12)C(=O)N[C@@H](Cc1ccc(O)cc1)C(=O)N[C@@H](Cc1c[nH]cn1)C(N)=O [(KFmoc)WYH-NH2] (Fmoc-KWYH-NH2) | 139 | 
NCCCC[C@H](NC(=O)[C@H](Cc1ccc(O)cc1)NC(=O)[C@H](Cc1c[nH]c2ccccc12)NC(=O)[C@H](CCCCN)NC(=O)OCC1c2ccccc2-c2ccccc21)C(N)=O [(KFmoc)WYK-NH2] (Fmoc-KWYK-NH2) | 65 | 
NCCCC[C@H](NC(=O)OCC1c2ccccc2-c2ccccc21)C(=O)N[C@@H](Cc1c[nH]c2ccccc12)C(=O)N[C@@H](Cc1ccc(O)cc1)C(=O)N1CCC[C@H]1C(N)=O [(KFmoc)WYP-NH2] (Fmoc-KWYP-NH2) | 97 | 
N=C(N)NCCC[C@H](NC(=O)[C@H](Cc1ccc(O)cc1)NC(=O)[C@H](Cc1c[nH]c2ccccc12)NC(=O)[C@H](CCCCN)NC(=O)OCC1c2ccccc2-c2ccccc21)C(N)=O [(KFmoc)WYR-NH2] (Fmoc-KWYR-NH2) | 45 | 
C[C@@H](O)[C@H](NC(=O)[C@H](Cc1ccc(O)cc1)NC(=O)[C@H](Cc1c[nH]c2ccccc12)NC(=O)[C@H](CCCCN)NC(=O)OCC1c2ccccc2-c2ccccc21)C(N)=O [(KFmoc)WYT-NH2] (Fmoc-KWYT-NH2) | 53 | 
CS(=O)(=O)CC[C@H](NC(=O)[C@@H](Cc1ccccc1)NC(=O)[C@H](Cc1c[nH]c2ccccc12)NC(=O)[C@H](CCCCN)NC(=O)OCC1c2ccccc2-c2ccccc21)C(N)=O [(KFmoc)Wf(MetO2)-NH2] (Fmoc-KW[dF][Met(O2)]-NH2) |  | 44
